Laboratory results from PubChem BioAssay AID179 (DTP/NCI, 2004).
Several values for one entry are separate records, joined by “and”; a condition that tells them apart may be missing. Identical values can stand only once. Activity calls are given as the source filed them.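 How the source made its calls: active means compounds giving half or more protection of infected cells from virus-caused growth loss, again on retest; inactive means the rest.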 Where a SMILES comes first, the peptide text is derived from it.

Tested on: CEM cells HIV-1 protection, formazan growth assay
Test: NCI AIDS Antiviral Assay
Conditions: for IC50: measured here: growth of uninfected CEM cells
In short: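 Screen of anti-HIV-1 activity in human CEM cells using a formazan-based growth measurement at five drug concentrations. Hits with 50% or greater protection were repeated, and confirmation required reproducible complete protection.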

SMILES	EC50	IC50	outcome
CC(O)C(NC(=O)C(CCCCN)NC(=O)C(CC(=O)O)NC(=O)C(N)Cc1ccccc1)C(=O)NC(CO)C(=O)NC(CC(N)=O)C(=O)NC(CO)C(=O)N1CCCC1C(=O)NC(Cc1ccc(O)cc1)C(=O)NC(Cc1cnc[nH]1)C(=O)NC(Cc1ccccc1)C(=O)O (centres undefined) (H-FDKTSNSPYHF-OH; configuration not given here)	> 46.8 µM	> 46.8 µM	
NC(=O)NN=C1C[C@H]2CCCC[C@H]2C1			inactive
CC(=O)Oc1cc(/C=C(\C#N)C(=O)NCCCCCNC(=O)/C(C#N)=C/c2cc(OC(C)=O)c(OC(C)=O)c(OC(C)=O)c2)cc(OC(C)=O)c1OC(C)=O	> 200 µM	27.5 µM	
CCOC(=O)Nc1nc2cc(C(=O)OCC)n(C)c2s1	> 200 µM	> 200 µM	
COc1c2c(cc3oc(C)cc(=O)c13)OC(=N)C(C(N)=O)C2CC(=O)c1ccc(N)cc1 (centres undefined)	45.7 µM	> 100 µM	
N#Cc1c(-c2ccccc2)c(-c2ccccc2)cc2c(=O)c3ccc(Cl)cc3[nH]c12	> 33.1 µM	> 33.1 µM	
CC(=O)Oc1cc(OC(C)=O)c2c(=O)c(OC(C)=O)c(-c3ccc(OC(C)=O)c(OC(C)=O)c3)oc2c1	> 200 µM	9.33 µM	
C#CCNC(CS)C(=O)O (centres undefined)	> 200 µM	> 200 µM	
O=C1OC(CCCN2CCCCC2)(c2ccccc2)CC12CCCC2 (centres undefined)	> 200 µM	191 µM	
OCC(CN1CCCCC1)(CN1CCCCC1)CN1CCCCC1	> 50.1 µM	> 50.1 µM	
C=C1[C@H]2C[C@H]3[C@@H]4N5C[C@]6(C)CCCC47C6[C@@]5(O)CC3([C@@H]1O)[C@H]7[C@H]2O			inactive
c1ccc(CN2C3C4N(Cc5ccccc5)C2C2N(Cc5ccccc5)C(C(N2Cc2ccccc2)N4Cc2ccccc2)N3Cc2ccccc2)cc1	> 100 µM	> 100 µM	
COc1ccc2nc(NC(=O)/C(C#N)=C/c3ccccc3)sc2c1	> 200 µM	12 µM	
CCC[CH2][Sn]([CH2]CCC)([O]C(=O)c1cccc(F)c1F)[O][Sn]([CH2]CCC)([CH2]CCC)[O]C(=O)c1cccc(F)c1F	> 6.61 µM	4.79 µM	
CCOC(=O)NP(=O)(Nc1ccccc1)Nc1ccccc1	> 200 µM	> 200 µM	
Cc1cn(C2CC(O[Si](C)(C)C(C)(C)C)C(/C=[N+](\C)[O-])O2)c(=O)[nH]c1=O (centres undefined)	> 200 µM	37.2 µM	
CCOP(=O)(OCC)c1cc(-c2ccccc2)ccc1N	> 200 µM	> 200 µM	
CCOC(=O)/C(=C\c1ccc(Cl)cc1)P(=O)(OCC)OCC	> 15.1 µM	14.1 µM	
Cc1ccc(/C(O)=C/c2nc3ccc([N+](=O)[O-])cc3nc2/C=C(\O)c2ccc(C)cc2)cc1	> 100 µM	97.7 µM	
CCCCCC=C(c1cc(Cl)c(OC)c(C(=O)O)c1)c1cc(Cl)c(OC)c(C(=O)O)c1	129 µM and > 126 µM	155 µM and 83.2 µM	
C1=Nc2ccc(cc2)-c2ccc(cc2)N=Cc2ccc(cc2)OCc2cccc(n2)COc2ccc1cc2	> 100 µM	> 100 µM	

SMILES	EC50	IC50	outcome
CCOC(=O)/C(=C\c1cccc([N+](=O)[O-])c1)C(C)=O			inactive
Cc1ccc2c(c1)[nH]c(=S)n2/C=C(/c1ccc(Cl)cc1)S(=O)(=O)Cc1ccc(Cl)cc1	> 200 µM	> 200 µM	
O=c1[nH]c2ccc([As](=O)(O)O)cc2[nH]1	> 200 µM	> 200 µM	
CC1=NOC(=O)C1N=Nc1ccc(Br)c(C)c1 (centres undefined)			inactive
O=C1OC(C2Cc3ccc4ccccc4c3C2=O)c2ccccc21 (centres undefined)	> 100 µM	74.1 µM	
CN(C)c1cc(CN(CCSS(=O)c2ccccc2[N+](=O)[O-])S(=O)c2ccccc2[N+](=O)[O-])nc(CN(CCSS(=O)c2ccccc2[N+](=O)[O-])S(=O)c2ccccc2[N+](=O)[O-])c1 (centres undefined)	> 100 µM	> 100 µM	
C=C=C(Sc1ccccc1)C(C)(C)OC(C)=O	> 50.1 µM	14.5 µM	
CCN(CC)c1ccc(NC(=S)NN(C)C)cc1	> 200 µM	52.5 µM	
NC(=O)NC(=O)c1cccs1	> 200 µM	> 200 µM	
Cc1ccc(N2C(=O)CS/C2=C(\C#N)c2nc3ccccc3[nH]2)cc1	> 200 µM	> 200 µM	
Nc1c(C(=O)O)[nH]c(=O)[nH]c1=S	> 200 µM	95.5 µM	
N.N.N.N.N.N.[Br-].[Co+3]			inactive
CCCCC(C(=O)NCCNC(=O)CCC(=O)N(C)O)C(=O)NCCNC(=O)CCC(=O)N(C)O	> 200 µM	112 µM	
CCCCCCCCCCCCCC/C(=C/OCC[N+](C)(C)C)OC(C)=O (tested in a mixture with another compound)	> 200 µM	0.355 µM	
CN(C)c1nc(=NCc2cccs2)ss1	> 200 µM	17.4 µM	
C[C@@H]1CCC(=O)C(C(=O)CC2CC(=O)NC2=O)C1 (some centres undefined)	> 200 µM	> 200 µM	
Cc1ccc(NC(=O)C(=O)CC(=O)C2CCOC2=O)c(C)c1 (centres undefined)			inactive
NC(=O)NCCCC(NC(=O)OCCCCCn1ccc(=O)[nH]c1=O)C(=O)O (centres undefined)	> 100 µM	> 100 µM	
Cc1cn(C2CC(NO)C(CO[Si](C)(C)C(C)(C)C)O2)c(=O)[nH]c1=O (centres undefined)	> 200 µM	126 µM	
O=C1N(C2CCCCC2)C(=O)N1C1CCCCC1	8.32 µM	17.8 µM	
C=COC(=O)N1C2CCCC(Cl)(C(C)=O)C1CC2 (centres undefined)	> 200 µM	55 µM	

SMILES	EC50	IC50	outcome
CC(=O)[O-].CC(=O)[O-].O=C(N/N=C/c1cc(Cl)cc(Cl)c1[OH2+])c1ccncc1.[Mn+2]			inactive
CC(C)c1cccc(C(C)C)c1NC1=CC(=O)C(=O)c2ccccc21	> 30.2 µM	> 30.2 µM	
Cc1ccc(SC2CC3CC2C2COCC32)cc1 (centres undefined)	> 85.1 µM	47.9 µM	
O=C(CCCN1CCC2(CC1)C(=O)NCN2c1ccc(F)cc1)c1ccc(F)cc1	> 200 µM	> 200 µM	
C(#Cc1ccccc1)SC1=C(c2ccccc2)S/C(=C(\SC#Cc2ccccc2)c2ccccc2)S1	> 200 µM	> 200 µM	
O=C(CC(=O)N1N=C(N2CCCCC2)CC1c1ccccc1)Nc1ccccc1 (centres undefined)	> 200 µM	> 200 µM	
ClC(Cl)=C(Cl)C1(Cl)CC1COCc1ccccc1 (centres undefined)	> 30.9 µM	24.5 µM	
CC1(Cl)CCC2(CC(Br)=CC3OC32C)CC1Br (centres undefined)			inactive
CC(=O)N1C(NN(C)C)CCN1c1ccccc1 (centres undefined)	> 200 µM	32.4 µM	
O=C(CSSCC(=O)c1ccccc1)c1ccccc1	> 89.1 µM	11 µM	
Cc1ccc(N(C)S(=O)(=O)c2ccccc2)cc1	> 145 µM	67.6 µM	
CC(=O)c1ccc2c3c(ccc([N+](=O)[O-])c13)C(=O)OC2=O	> 200 µM	30.9 µM	
C=C(C)[C@@H]1CC[C@]2(CO)CC[C@]3(C)[C@H](CC[C@@H]4[C@@]5(C)CC[C@H](O)C(C)(C)[C@@H]5CC[C@]43C)[C@@H]12	41.7 µM	69.2 µM	
C/C=C1\CN(C)C[C@@]2(C(=O)OC)Cc3c(n(OC)c4ccccc34)C(=O)C[C@@H]12	> 135 µM	97.7 µM	
O=C1CCCC/C1=C\c1ccc(Cl)c(Cl)c1			inactive
c1ccc([P+](Cc2ccco2)(c2ccccc2)c2ccccc2)cc1	> 200 µM	3.39 µM	
CCN(CC)C(=O)c1cc(OC(C)C)ccc1-c1c(C)cc(OC(C)C)c(OC)c1OC	> 214 µM	> 214 µM	
COC1CC(OC2C(C)OC(OC3C(C)OC(OC4C(O)CC(O[C@H]5CC[C@@]6(C)C(=CC[C@]7(O)[C@@H]6C[C@@H](OC(C)=O)[C@@]6(C)[C@]7(O)CC[C@@]6(O)C(C)=O)C5)OC4C)CC3OC)CC2OC)OC(C)C1O (some centres undefined)	> 200 µM	> 200 µM	
CCN(CC)CCN(C(=O)C(C)(C)C)c1ccccc1N	> 200 µM	> 200 µM	
CSC1=N/C(=C\c2ccco2)C(=O)N1CN1CCCCC1	> 200 µM	102 µM	
COC(OC)[C@@H](C)[C@H](O)[C@](C)(O)C1OC(C)(C)OC(C(C)C=C(C)C)C1C (some centres undefined)			inactive

SMILES	EC50	IC50	outcome
CC(=O)CC(=O)Nc1ccccc1.CC(=O)CC(=O)Nc1ccccc1.[Cu]	> 200 µM	17.4 µM	
O=c1nc(Oc2ccccc2)nc2cnccn12	> 372 µM	145 µM	
Cc1cc(O)c(/C=N/C(=S)NCCc2ccccc2)c(=O)o1	> 200 µM	> 200 µM	
COc1ccc(-c2nnc3n(Cc4ccccc4)c4ccccc4n3c2=O)cc1	> 200 µM	> 200 µM	
COc1c2c(cc3c(CCc4ccccc4)cc(=O)oc13)CCC(C)(C)O2	> 14.5 µM	> 14.5 µM	
COc1ccc(NC(=O)c2c(NC(=O)CN3CCOCC3)c(C#N)c3n2CCC3)cc1	> 100 µM	> 100 µM	
O=C(O)Cc1cc(=O)[nH]n(-c2ccccc2)c1=O	> 200 µM	> 200 µM	
COC1OC(CCC2NC(CO)C(O)C(O)C2O)C(O)C(O)C1O (centres undefined)	> 200 µM	> 200 µM	
COC12OCCN(C)C1=CC(=O)C1N=NCC12 (centres undefined)			inactive
CC(C)CC(=O)[O-].CC(C)CC(=O)[O-].N.N.N.N.[Co+3].[O-][Cl+3]([O-])([O-])O.[O-][Cl+3]([O-])([O-])[O-]			inactive
CCCCCCCCC#CCCCCCCC(F)C(=O)O (centres undefined)			inactive
COC1C(=O)CCC2(CO2)C1(O)C1(C)OC1CC=C(C)C (centres undefined)	> 200 µM	2.88 µM	
[N-]=[N+]=Nc1c(-c2ccccc2)c(Cl)nc2ccccc12	> 200 µM	20.4 µM	
CC(=O)NC1C(OCc2ccccc2)OC(CO)C(O)C1OCC(=O)NC(C)C(=O)NC(CCC(=O)NCCCCNc1ccc([N+](=O)[O-])c2[nH]c3ccccc3c(=O)c12)C(N)=O (centres undefined)	81.3 µM	> 100 µM	
Cc1cc(Br)ccc1N=Nc1c(C)noc1-c1ccccc1			inactive
COP1(=S)OCC2CCC[C@@H]2O1 (some centres undefined)			inactive
COc1ccc(OC)c(C(=O)/C=C\C(=O)O)c1	> 219 µM	24.5 µM	
O=[N+]([O-])c1ccc(/C=C/c2cc(-c3ccccc3)nc3ccc4ccccc4c23)cc1	> 200 µM	> 200 µM	
CC1(Cl)C(=O)NC(=O)N(C2CC(N=[N+]=[N-])C(CO)O2)C1N=[N+]=[N-] (centres undefined)	3.89 µM	282 µM	
